Experimental data as given in patent US6800762B2, “Indolin derivaties as sun protection agents” (Ciba Specialty Chemicals Corporation, priority 1998, dated 2004).

Experiments:
[1] = UV absorption: molar extinction coefficient at λmax; type: physicochemical
Excerpt: ε=62081 in ethanol l/(mol/cm) at λmax=434 nm, elemental analysis for C24H32N2O2[%]:

[2] = photostability; type: physicochemical; settings: read-out: photostability t1/2 (converted)

CN1/C(=C\C=O)C(C)(C)c2ccccc21 [Example 1, 2-(1,3,3-trimethyl-indolin-2-ylene) acetaldehyde]
ε ([1]; in ethanol at λmax): 34520 l/(mol/cm)
half-life [2]: 208 h

CCCCC(CC)COC(=O)/C(C#N)=C/C=C1\N(C)c2ccccc2C1(C)C (stereo not drawn) [Example 2]
λmax ([1]; in ethanol): 434 nm
ε ([1]; in ethanol at λmax): 62081 l/(mol/cm)

CN1/C(=C/C(=O)c2ccccc2)C(C)(C)c2ccccc21 [Example 3]
λmax ([1]; in dioxane): 377 nm
ε ([1]; in dioxane at λmax): 29427 l/(mol/cm)
